Experimental data from patent US10702479B2, “Pharmaceutical formulation comprising sembragiline” (Hoffmann-La Roche Inc., priority 2015, dated 2020).
In brackets after ≈: the same amount, converted by molar mass. Where two headings read alike, the source gives them in different places.

Test: Solubility of Sembragiline in media at 37° C.
Type: physicochemical
Conditions: for solubility at 4 h: read-out: Solubility of Sembragiline After 4 h

- Dose Solubility Ratio (1 mg, Water): 25
- Dose Solubility Ratio (1 mg, pH 1, HCl 0.1N): 25
- Dose Solubility Ratio (1 mg, pH 4.5, 50 mM acetate buffer): 25
- Dose Solubility Ratio (1 mg, pH 6.8, 50 mM phosphate buffer): 25
- Dose Solubility Ratio (1 mg, pH 7.5, 50 mM phosphate buffer): 25
- Dose Solubility Ratio (5 mg, Water): 125
- Dose Solubility Ratio (5 mg, pH 1, HCl 0.1N): 125
- Dose Solubility Ratio (5 mg, pH 4.5, 50 mM acetate buffer): 125
- Dose Solubility Ratio (5 mg, pH 6.8, 50 mM phosphate buffer): 125
- Dose Solubility Ratio (5 mg, pH 7.5, 50 mM phosphate buffer): 125
- solubility at 4 h (0.1 N HCl, simulated gastric fluid, pH 1, HCl 0.1N): 40 µg/mL (≈ 117 µM)
- Solubility of Sembragiline 250 mL (Water): 10 mg
- solubility at 4 h (Water): 40 µg/mL (≈ 117 µM)
- solubility at 4 h (aqueous buffer, pH 4.5, 50 mM acetate buffer): 40 µg/mL (≈ 117 µM)
- solubility at 4 h (aqueous buffer, pH 6.8, 50 mM phosphate buffer): 40 µg/mL (≈ 117 µM)
- solubility at 4 h (aqueous buffer, pH 7.5, 50 mM phosphate buffer): 40 µg/mL (≈ 117 µM)
- Solubility of Sembragiline 250 mL (pH 1, HCl 0.1N): 10 mg
- Solubility of Sembragiline 250 mL (pH 4.5, 50 mM acetate buffer): 10 mg
- Solubility of Sembragiline 250 mL (pH 6.8, 50 mM phosphate buffer): 10 mg
- Solubility of Sembragiline 250 mL (pH 7.5, 50 mM phosphate buffer): 10 mg
Compound: CC(=O)N[C@H]1CC(=O)N(c2ccc(OCc3cccc(F)c3)cc2)C1 [Sembragiline, N-[(3S)-1-[4-[(3-fluorophenyl)methoxy]phenyl]-5-oxo-pyrrolidin-3-yl]acetamide]
